Source: US9738902B2, “Modified PYR/PYL receptors activated by ligands” (priority 2013, dated 2017)

Columns and labels:
[1] = molecular target: T1, GST-HAB1 in the presence of PYR1^K59R,F108A,S122G (Arabidopsis thaliana, UniProt O49686, F108A/K59R/S122G); test: PP2C activity assay (pNPP); format: biochemical; conditions: PYR1^K59R,F108A,S122G 1200 nM, PP2C 600 nM
T1 construct: 6x-His; made in house; host or cells: E. coli BL21[DE3]pLysS (receptor)
Source text: One possibility in any functional screen conducted in a heterologous organism such as S. cerevisiae is that mutants identified may only work in the context of the heterologous expression system. We therefore examined whether recombinant PYR1^K59R,F108A,S122G and PYR1^MANDI proteins inhibit PP2C activity in vitro, as is well documented for wild type PYR1 in response to ABA (Park et al., 2009). Both receptors were cloned into pET28 to generate 6×-His (SEQ ID NO:109) tagged receptors. These were expressed in BL21[DE3]pLysS E. coli host cells at 18° C. overnight. 6×-His-fusion proteins were purified from sonicated lysates using Ni-NTA agarose (Qiagen, USA), according to the manufacturer's instructions. For PP2C assays, recombinant GST-HAB1 and GST-ABI2 were expressed and purified as described previously (Park et al., 2009) and PP2C activity assayed conducted using the colorimetric phosphatase substrate para-nitrophenyl phosphate (pNPP) as previously described (Park et al., 2009). PP2C assays were conducted using 600 nM of PP2C and 1200 nM recombinant receptors. […] We note that these mutant receptors cannot respond to ABA due to the K59R mutation they contain, which abolishes ABA responsiveness.

[2] = molecular target: T2, GST-ABI1 with 6×-His-PYR1^MANDI (Arabidopsis thaliana, UniProt O49686, F108A/F159L/K59R/S122G/V81I/Y58H); test: PP2C enzyme inhibition assay (4-methylumbelliferyl-phosphate); format: biochemical; conditions: 100 nM 6×-His-PYR1^MANDI, 50 nM GST-PP2C; read-out: IC50, mandipropamid mediated inhibition of ABI1
T2 construct: made in house; host or cells: E. coli BL21[DE3]pLysS (receptor)
T2 sequence (O49686 whole entry Y58H/K59R/V81I/F108A/S122G/F159L): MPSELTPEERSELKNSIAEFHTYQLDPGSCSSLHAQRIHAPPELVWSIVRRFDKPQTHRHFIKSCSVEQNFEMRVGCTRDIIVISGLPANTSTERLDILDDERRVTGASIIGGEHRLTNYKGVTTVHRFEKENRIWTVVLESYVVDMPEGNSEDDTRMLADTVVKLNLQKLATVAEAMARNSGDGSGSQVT
T2 sequence (P49597 whole entry partner): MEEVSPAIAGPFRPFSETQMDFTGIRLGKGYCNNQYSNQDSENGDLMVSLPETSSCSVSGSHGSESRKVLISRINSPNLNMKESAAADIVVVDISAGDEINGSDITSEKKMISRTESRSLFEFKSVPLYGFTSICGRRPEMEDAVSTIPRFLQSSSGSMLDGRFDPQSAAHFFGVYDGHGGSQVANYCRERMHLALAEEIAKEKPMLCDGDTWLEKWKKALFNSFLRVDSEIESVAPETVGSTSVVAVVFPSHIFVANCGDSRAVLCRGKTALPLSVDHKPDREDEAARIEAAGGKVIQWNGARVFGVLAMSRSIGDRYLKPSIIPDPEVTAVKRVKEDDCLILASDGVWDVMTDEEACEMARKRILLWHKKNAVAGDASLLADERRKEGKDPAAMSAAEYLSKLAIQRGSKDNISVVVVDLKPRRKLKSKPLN
Description: (§1) We next characterized the effects of recombinant PYR1^MANDI on PP2C activity using the fluorogenic substrate 4-methylumbelliferyl-phosphate. Recombinant receptor and PP2C proteins were prepared as described above and used to examine PP2C inactivation in response to mandipropamid or ABA. Enzyme inhibition assays were conducted using the following assay conditions: 100 nM 6×-His-PYR1^MANDI, 50 nM GST-PP2C, 100 mM Tris-OAc (pH 7.9), 100 mM NaCl, 1 mM MnCl2, 1% β-mercaptoethanol. […] The three ABA-regulated clade A PP2Cs, GST-HAB1, GST-ABI1 and GST-ABI2 were each tested under the same enzyme conditions in separate reactions. The assays were conducted at a variety of mandipropamid or ABA concentrations so that IC50 values could be determined. […] Thus, the PYR1^MANDI receptor is highly sensitive to activation by mandipropamid and interacts with multiple clade A PP2Cs in response to mandipropamid. This high level of sensitivity is consistent with the yeast two hybrid results described above in which a detectable interaction between PYR1^MANDI and HAB1 could be observed at concentrations as low as 2 nM (see Table 1). We note that the yeast two hybrid reporter systems requires only a small percentage of PYR1^MANDI receptors to bind HAB1 for an interaction signal and is therefore a potentially more sensitive indicator than in vitro assays. […] Thus these in vitro assays confirm that PYR1^MANDI is selectively activated by mandipropamid.

[3] = molecular target: T3, GST-ABI2 with 6×-His-PYR1^MANDI (Arabidopsis thaliana, UniProt O49686, F108A/F159L/K59R/S122G/V81I/Y58H); test: as above; format: biochemical; conditions: 100 nM 6×-His-PYR1^MANDI, 50 nM GST-PP2C; read-out: IC50, mandipropamid mediated inhibition of ABI2
T3 construct: made in house; host or cells: E. coli BL21[DE3]pLysS (receptor)
T3 sequence (O49686 whole entry Y58H/K59R/V81I/F108A/S122G/F159L): as the sequence (O49686 whole entry Y58H/K59R/V81I/F108A/S122G/F159L) above
T3 sequence (O04719 whole entry partner): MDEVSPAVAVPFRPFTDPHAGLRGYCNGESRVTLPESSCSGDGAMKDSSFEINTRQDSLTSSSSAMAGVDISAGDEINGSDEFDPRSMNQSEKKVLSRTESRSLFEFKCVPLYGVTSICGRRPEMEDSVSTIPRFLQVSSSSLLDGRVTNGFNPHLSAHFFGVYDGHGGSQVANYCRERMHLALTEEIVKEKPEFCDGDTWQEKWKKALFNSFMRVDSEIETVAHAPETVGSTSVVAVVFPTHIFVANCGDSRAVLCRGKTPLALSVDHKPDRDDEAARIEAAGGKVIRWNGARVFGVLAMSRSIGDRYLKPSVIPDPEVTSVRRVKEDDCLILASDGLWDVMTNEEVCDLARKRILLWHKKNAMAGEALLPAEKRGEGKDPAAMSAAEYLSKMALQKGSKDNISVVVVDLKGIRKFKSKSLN
Description: as §1

[4] = molecular target: T4, GST-HAB1 with 6×-His-PYR1^MANDI (Arabidopsis thaliana, UniProt O49686, F108A/F159L/K59R/S122G/V81I/Y58H); test: as above; format: biochemical; conditions: 100 nM 6×-His-PYR1^MANDI, 50 nM GST-PP2C; read-out: IC50, mandipropamid mediated inhibition of HAB1
T4 construct: made in house; host or cells: E. coli BL21[DE3]pLysS (receptor)
T4 sequence (Q9CAJ0 23-511): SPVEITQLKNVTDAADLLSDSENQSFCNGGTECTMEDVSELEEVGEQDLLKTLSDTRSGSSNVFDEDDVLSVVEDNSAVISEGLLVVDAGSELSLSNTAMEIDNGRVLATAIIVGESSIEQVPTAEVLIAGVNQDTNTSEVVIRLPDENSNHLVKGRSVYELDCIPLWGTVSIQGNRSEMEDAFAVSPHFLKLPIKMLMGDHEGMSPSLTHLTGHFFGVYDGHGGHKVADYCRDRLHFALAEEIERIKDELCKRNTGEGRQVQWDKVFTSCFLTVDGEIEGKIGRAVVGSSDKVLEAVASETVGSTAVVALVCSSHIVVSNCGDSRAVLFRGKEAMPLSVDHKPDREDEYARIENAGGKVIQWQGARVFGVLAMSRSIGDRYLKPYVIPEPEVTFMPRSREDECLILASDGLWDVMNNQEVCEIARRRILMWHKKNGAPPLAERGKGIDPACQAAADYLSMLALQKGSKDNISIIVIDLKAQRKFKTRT
T4 sequence (O49686 whole entry Y58H/K59R/V81I/F108A/S122G/F159L): as the sequence (O49686 whole entry Y58H/K59R/V81I/F108A/S122G/F159L) above
Description: as §1

[5] = test system: homozygous PYR1^MANDI expressing transgenic plants; test: thermal imaging of leaf temperature; format: in vivo, Arabidopsis
Description: (§2) To investigate if the system is sufficient to control ABA responses in vegetative tissues, we generated homozygous transgenic lines for two 35S-driven lines (E15 and E16) and 2 RBCS-driven lines (F29 and F34). These materials were grown along side wild type plants and a previously constructed 35S::GFP-PYR1 over expression line (Park et al., 2009). These plants were grown until three weeks old and then treated with a solution containing either 2 μM mandipropamid and 0.02% Silwet or a mock treatment containing 0.02% Silwet and the mandipropamid carrier solvent (DMSO). 24 hours after treatment, the leaf temperatures were examined using a thermal imaging camera. It is well known that ABA-induced guard cell closure reduces transpiration, which leads to increases in leaf temperatures. […] Since guard cell aperture is the primary determinant of transpiration rates, thermal imaging is a useful way to indirectly infer relative transpiration rates and guard cell aperture at the whole plant level. As is shown in FIG. 3, mandipropamid treatment of homozygous PYR1^MANDI expressing transgenic plants leads to large changes in leaf temperature (˜2° C. increase) within 24 hours of treatment.
Treatment of plants with abscisic acid leads to the induction of CYP707A cytochrome P450s, which hydroxylate ABA at its 8′ methyl group. […] Thus, ABA applications lose effect over time due to metabolic inactivation. Given that mandipropamid is a non-native molecule, it is likely not a degraded by the CYP707A enzyme system. […] Plants were treated with mock, 1, 5 or 20 μM mandipropamid and then analyzed by thermography at 4 hours, 3 and 6 days after treatment. […] Additionally, control and 1 μM treated plants flowered during the experiment while flowering was prevented in the 5 μM and 20 μM treated mandipropamid plants.

[6] = test system: 35S::GFP-PYR1 expressing transgenic plants; test: thermal imaging of leaf temperature; format: in vivo, Arabidopsis; conditions: 35S::GFP-PYR1, 2 μM, 24 hours
Description: as §2

wild type plants = test: thermal imaging of leaf temperature; format: in vivo, Arabidopsis; conditions: 2 μM, 24 hours
Description: as §2

T1 sequence (O49686 whole entry K59R/F108A/S122G): as the sequence (O49686 whole entry Y58H/K59R/V81I/F108A/S122G/F159L) above, with H58Y, I81V, L159F counted along it
T1 sequence (Q9CAJ0 23-511 partner): as the sequence (Q9CAJ0 23-511) above

Question: Which “inhibition of HAB1 PP2C activity” value [1] does the source give for `C#CCOc1ccc(CCNC(=O)C(OCC#C)c2ccc(Cl)cc2)cc1OC` (stereo not shown) [Mandipropamid, mandipropamid] here?
Answer: Its value is “saturable inhibition”.

Question: And the IC50 [2]?
Answer: Its IC50 is 26.8 nM.

Question: What about the IC50 [3] of the same compound?
Answer: The IC50 was 75.5 nM.

Question: What about the IC50 [4] of the same compound?
Answer: The IC50 was 32.2 nM.

Question: And the “flowering during the experiment” value ([5]; 1 μM mandipropamid)?
Answer: The value was “flowered”.

Question: And the leaf temperature increase ([5]; 2 μM mandipropamid, within 24 hours of treatment)?
Answer: Its leaf temperature increase is about 2 °C.

Question: And the “flowering during the experiment” value ([5]; 5 μM mandipropamid)?
Answer: Its value is “prevented”.

Question: What about the “persistence of increased leaf temperature” value ([5]; 5 μM mandipropamid) of the same compound?
Answer: Its value is “at least 6 days”.

Question: What about the “flowering during the experiment” value ([5]; 20 μM mandipropamid) of the same compound?
Answer: Its value is “prevented”.

Question: What about the “persistence of increased leaf temperature” value ([5]; 20 μM mandipropamid) of the same compound?
Answer: Its value is “at least 6 days”.

Question: And the “time to increased leaf temperature after treatment” value ([5]; mandipropamid treatment)?
Answer: The value was at most 4 h.

Question: And the “leaf temperature effect of mandipropamid” value [6]?
Answer: The value was “not observed”.

Question: What about the “leaf temperature effect of mandipropamid” value (wild type plants) of the same compound?
Answer: Its value is “not observed”.
